Assay results published in paper PMC12519282, “Reduction of Negative Charge in Mercaptoacetyl-Based Chelators Influences the Biodistribution of Prostate-Specific Membrane Antigen-Targeting Pseudopeptides Labeled with Technetium-99m” (ACS Pharmacology & Translational Science, 2025).
Where two headings read alike, the source gives them in different places. Marks after values point to notes of the source that are not given here.

How the values were obtained:
PC3-pip cells [1] = assay: in vitro binding specificity test; assay type: cell-based; settings: 1 h, 37 °C
Protocol: For the in vitro binding specificity test, approximately 8 × 10^5 PC3-pip cells per well were seeded 24 h before the experiment. […] Technetium-99m-labeled tracers were added to each well to reach a concentration of 2 nM. After 1 h of incubation at 37 °C, cells were washed with PBS solution, detached, and collected. Cell-associated activity was measured using a gamma counter and presented as the percentage of added activity.

physchem = assay type: physicochemical; settings: pH 7.4
Protocol: (§1) To evaluate the label’s stability, 10 μL (0.25 μg) of radiolabeled conjugates was incubated with 300× molar excess of cysteine or with PBS for 1 h at room temperature. The test was run in triplicate. The release of free technetium-99m was controlled by using iTLC and radio-HPLC analysis. The stability in serum was analyzed by mixing the radioconjugates (0.25 μg in 10 μL) with murine serum or PBS (40 μL) as a control. The samples were incubated for 1 h at 37 °C and analyzed by iTLC. The experiment was performed in triplicate. The octanol–water distribution coefficient (Log D) was determined experimentally by the addition of 100 pmol of the radiolabeled tracer to an Eppendorf tube containing PBS (500 μL) and n-octanol (500 μL), pH ∼ 7.4. The solution was vortexed and centrifuged, and aliquots (50 μL) from each phase were collected and measured using a gamma counter. The experiment was performed in triplicate.

PC3-pip cells [2] = assay: cellular processing (membrane-bound / internalized activity); assay type: cell-based; settings: 2 nM, continuous incubation, after 8 h
Protocol: To evaluate cellular processing of technetium-99m-labeled BQ0500 and BQ0501, PC3-pip cells were incubated with the radiolabeled tracer (2 nM), and at 1, 2, 4, and 8 h of continuous incubation, the membrane-bound and internalized fractions were collected as previously described using 4 M urea solution in 0.2 M glycine buffer (pH 2) to collect membrane-bound fraction and 1 N solution of NaOH to collect the internalized fraction. The activity in the samples was measured, and the percentage of membrane-bound and internalized activity was calculated. The experiments were performed in triplicate.

PC3-pip xenografts = assay: biodistribution and tumor targeting in PC3-pip tumor-bearing mice; assay type: in vivo
From the text: The injected masses for the in vivo experiments were chosen based on the findings for [^99mTc]-Tc-BQ0413: to study the general biodistribution of radiolabeled tracers in normal mice (NMRI), 40 pmol of tracer was used to avoid blocking of PSMA-mediated uptake in kidneys and salivary glands, to study tumor targeting, 5 nmol of tracer was used to decrease uptake in PSMA-expressing organs.
PSMA-expressing PCa xenografts were implanted in BALB/c nu/nu mice by subcutaneous injection of the PC3-pip cell suspension in PBS (10^7 cells/animal in 100 μL). The average animal weight in the experiment was 18 ± 2 g. The average tumor weight was 0.4 ± 0.2 g. For in vivo specificity control, 10^7 cells/animal PSMA-negative PC-3 cells were implanted. The average animal weight was 18 ± 1 g. The average tumor weight was 0.1 ± 0.1 g. Four mice per data point were used in the in vivo experiments.
For tumor-bearing mice, each mouse was intravenously injected with 5 nmol of [^99mTc]-Tc-BQ0413, [^99mTc]-Tc-BQ0500, and [^99mTc]-Tc-BQ0501 (60 kBq; the mass of the injected compound was adjusted with an unlabeled tracer). The mice were euthanized after lethal intraperitoneal injection of ketamine/xylazine, followed by exsanguination 1 and 3 h pi, similarly to the procedure described above.

PSMA = target: T1, PSMA (Homo sapiens, UniProt Q04609); assay: binding kinetics in real time on living PC3-pip cells (LigandTracer Yellow)
T1 construct: expressed in transfected cells; host or cells: PC3-pip (PSMA-transfected PC-3 prostate carcinoma cells), from Prof; Martin G. Pomper, Johns Hopkins University
Protocol: The binding kinetics of technetium-99m-labeled BQ0413, BQ0500, and BQ0501 were determined in PC3-pip cells in real-time using LigandTracer Yellow (Ridgeview Instruments AB, Uppsala, Sweden). The activity binding was recorded with 5 nM radiolabeled tracers for 150 min. After the binding kinetics were measured, the medium containing the labeled tracer was replaced with fresh medium, and the dissociation was monitored over 7 h. The association rate (k a) and the dissociation rate (k d) were computed using a 1:2 kinetic binding model in TraceDrawer software (Ridgeview Instruments AB, Uppsala, Sweden), and the equilibrium dissociation constant K D was calculated.

[3] = assay type: in vitro ADME, murine; settings: 1 h
Protocol: as §1

[4] = PC3-pip tumor-bearing mice, 5 nmol/mouse iv, 1 h pi
[5] = PC3-pip tumor-bearing mice, 5 nmol/mouse iv, 3 h pi
[6] = PC3-pip tumor-bearing mice, 5 nmol/mouse iv, 3 h pi, listed as [99mTc]Tc-BQ0501

T1 sequence (Q04609 whole entry): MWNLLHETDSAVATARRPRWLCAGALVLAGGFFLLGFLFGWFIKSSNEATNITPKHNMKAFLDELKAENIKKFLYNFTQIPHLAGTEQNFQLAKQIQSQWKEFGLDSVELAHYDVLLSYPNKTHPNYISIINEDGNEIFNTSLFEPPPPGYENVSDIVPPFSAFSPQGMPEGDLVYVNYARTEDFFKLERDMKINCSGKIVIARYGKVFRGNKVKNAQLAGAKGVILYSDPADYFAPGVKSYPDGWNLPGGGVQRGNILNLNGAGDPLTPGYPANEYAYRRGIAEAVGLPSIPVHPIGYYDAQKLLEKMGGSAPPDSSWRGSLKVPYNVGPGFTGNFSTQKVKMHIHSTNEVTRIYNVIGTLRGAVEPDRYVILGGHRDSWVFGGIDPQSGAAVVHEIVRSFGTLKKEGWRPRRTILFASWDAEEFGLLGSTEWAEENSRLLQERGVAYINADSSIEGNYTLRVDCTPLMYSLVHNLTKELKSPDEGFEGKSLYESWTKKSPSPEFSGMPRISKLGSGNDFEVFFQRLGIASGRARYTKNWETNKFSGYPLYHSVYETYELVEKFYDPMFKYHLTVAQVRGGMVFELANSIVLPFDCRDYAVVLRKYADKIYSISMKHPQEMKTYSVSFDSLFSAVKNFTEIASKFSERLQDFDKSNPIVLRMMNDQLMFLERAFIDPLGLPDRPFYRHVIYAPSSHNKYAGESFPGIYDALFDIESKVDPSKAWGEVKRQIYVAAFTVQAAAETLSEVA

CC(=O)NC(CCCCNC(=O)CNC(=O)C(CO)NC(=O)C(CO)NC(=O)C(CO)NC(=O)CS)C(=O)NCCCCCCCC(=O)NC(Cc1ccc(O)cc1)C(=O)NC(Cc1ccc2ccccc2c1)C(=O)NCCCCC(NC(=O)NC(CCC(=O)O)C(=O)O)C(=O)O (centres unmarked) [[^99mTc]Tc-BQ0501, metal not drawn]
activity uptake by PC3-pip cells (PC3-pip cells [1]; 2 nM tracer): 62 ± 7 % of added activity | activity uptake by PC3-pip cells after presaturation with PSMA-11 (PC3-pip cells [1]; 250-fold excess of nonlabeled PSMA-11, 2 nM tracer): significantly (p < 0.0001) decreased | logD (physchem): -2.4 ± 0.1 | maximum of internalized activity (PC3-pip cells [2]): 42–43 % of cell-associated activity | activity in carcass (PC3-pip xenografts; [4]): 8 ± 2 ^b %IA/sample | activity in intestines with content (PC3-pip xenografts; [4]): 9 ± 1 ^b ^e %IA/sample | activity uptake in blood (PC3-pip xenografts; [4]): 1.6 ± 0.5 ^b %IA/g | activity uptake in bone (PC3-pip xenografts; [4]): 0.4 ± 0.1 ^b ^e %IA/g | activity uptake in kidney (PC3-pip xenografts; [4]): 21 ± 6 ^b %IA/g | activity uptake in liver (PC3-pip xenografts; [4]): 1.8 ± 0.7 ^b %IA/g | activity uptake in lung (PC3-pip xenografts; [4]): 1.6 ± 0.4 ^b %IA/g | activity uptake in muscle (PC3-pip xenografts; [4]): 0.3 ± 0.1 ^b %IA/g | activity uptake in pancreas (PC3-pip xenografts; [4]): 0.45 ± 0.05 ^b %IA/g | activity uptake in salivary gland (PC3-pip xenografts; [4]): 0.6 ± 0.2 ^b ^, ^e %IA/g | activity uptake in small intestines (PC3-pip xenografts; [4]): 1.4 ± 0.6 ^b ^e %IA/g | activity uptake in spleen (PC3-pip xenografts; [4]): 2.4 ± 0.5 ^b %IA/g | activity uptake in stomach (PC3-pip xenografts; [4]): 0.6 ± 0.2 ^b ^e %IA/g | activity uptake in tumor (PC3-pip xenografts; [4]): 27 ± 7 %IA/g | tumor-to-blood ratio (PC3-pip xenografts; [4]): 19 ± 8 ^b | tumor-to-bone ratio (PC3-pip xenografts; [4]): 62 ± 18 ^b ^, ^e | tumor-to-kidney ratio (PC3-pip xenografts; [4]): 1.3 ± 0.5 ^b | tumor-to-liver ratio (PC3-pip xenografts; [4]): 17 ± 7 ^b | tumor-to-lung ratio (PC3-pip xenografts; [4]): 17 ± 6 ^b | tumor-to-muscle ratio (PC3-pip xenografts; [4]): 86 ± 34 ^b | tumor-to-pancreas ratio (PC3-pip xenografts; [4]): 62 ± 24 ^b | tumor-to-salivary gland ratio (PC3-pip xenografts; [4]): 47 ± 19 ^b ^, ^e | tumor-to-small intestines ratio (PC3-pip xenografts; [4]): 22 ± 11 ^b | tumor-to-spleen ratio (PC3-pip xenografts; [4]): 12 ± 5 ^b | tumor-to-stomach ratio (PC3-pip xenografts; [4]): 46 ± 18 ^b ^, ^e | activity in carcass (PC3-pip xenografts; [5]): 3 ± 1 %IA/sample | activity in intestines with content (PC3-pip xenografts; [5]): 11.0 ± 0.5 ^e %IA/sample | activity uptake in blood (PC3-pip xenografts; [5]): 0.14 ± 0.07 %IA/g | activity uptake in bone (PC3-pip xenografts; [5]): 0.07 ± 0.03 ^e %IA/g | activity uptake in kidney (PC3-pip xenografts; [5]): 4 ± 2 ^e %IA/g | activity uptake in liver (PC3-pip xenografts; [5]): 0.18 ± 0.06 %IA/g | activity uptake in lung (PC3-pip xenografts; [5]): 0.21 ± 0.07 %IA/g | activity uptake in muscle (PC3-pip xenografts; [5]): 0.08 ± 0.04 %IA/g | activity uptake in pancreas (PC3-pip xenografts; [5]): 0.1 ± 0.1 %IA/g | activity uptake in salivary gland (PC3-pip xenografts; [5]): 0.14 ± 0.06 ^e %IA/g | activity uptake in small intestines (PC3-pip xenografts; [5]): 0.17 ± 0.03 %IA/g | activity uptake in spleen (PC3-pip xenografts; [5]): 0.3 ± 0.2 %IA/g | activity uptake in stomach (PC3-pip xenografts; [5]): 0.14 ± 0.06 %IA/g | tumor-to-bone ratio (PC3-pip xenografts; [5]): 515 ± 113 ^e | tumor-to-kidney ratio (PC3-pip xenografts; [5]): 10 ± 2 ^e | tumor-to-liver ratio (PC3-pip xenografts; [5]): 222 ± 89 ^e | tumor-to-lung ratio (PC3-pip xenografts; [5]): 178 ± 61 ^e | tumor-to-muscle ratio (PC3-pip xenografts; [5]): 504 ± 195 | tumor-to-pancreas ratio (PC3-pip xenografts; [5]): 463 ± 135 ^e | tumor-to-salivary gland ratio (PC3-pip xenografts; [5]): 302 ± 146 ^e | tumor-to-small intestines ratio (PC3-pip xenografts; [5]): 209 ± 46 | tumor-to-spleen ratio (PC3-pip xenografts; [5]): 121 ± 47 ^e | tumor-to-stomach ratio (PC3-pip xenografts; [5]): 287 ± 102 ^e | activity in carcass (PC3-pip xenografts; [6]): 3±1 %IA/sample | activity in intestines with content (PC3-pip xenografts; [6]): 11.0±0.5 %IA/sample | activity uptake in blood (PC3-pip xenografts; [6]): 0.14±0.07 %IA/g | activity uptake in bone (PC3-pip xenografts; [6]): 0.07±0.03 %IA/g | activity uptake in kidney (PC3-pip xenografts; [6]): 4±2 %IA/g | activity uptake in liver (PC3-pip xenografts; [6]): 0.18±0.06 %IA/g | activity uptake in lung (PC3-pip xenografts; [6]): 0.21±0.07 %IA/g | activity uptake in muscle (PC3-pip xenografts; [6]): 0.08±0.04 %IA/g | activity uptake in pancreas (PC3-pip xenografts; [6]): 0.1±0.1 %IA/g | activity uptake in salivary gland (PC3-pip xenografts; [6]): 0.14±0.06 %IA/g | activity uptake in small intestines (PC3-pip xenografts; [6]): 0.17±0.03 %IA/g | activity uptake in spleen (PC3-pip xenografts; [6]): 0.3±0.2 %IA/g | activity uptake in stomach (PC3-pip xenografts; [6]): 0.14±0.06 %IA/g | activity uptake in tumor (PC3-pip xenografts; [6]): 35±4 %IA/g | excretion pathway (PC3-pip xenografts; PC3-pip xenografts): predominantly renal | B max1 (binding maximum) (PSMA; 5 nM tracer, 1:2 model (1:1 for BQ0413)): 492 CPS | Kd (PSMA; 5 nM tracer, 1:2 model (1:1 for BQ0413), read-out: K D1): 0.474 nM | kon (PSMA; 5 nM tracer, 1:2 model (1:1 for BQ0413), read-out: k a1 (association rate)): 27000 M⁻¹ s⁻¹ | koff (PSMA; 5 nM tracer, 1:2 model (1:1 for BQ0413), read-out: k d1 (dissociation rate)): 1.2e-05 s⁻¹ | B max2 (binding maximum) (PSMA; 5 nM tracer, 1:2 model, second interaction): 272 CPS | Kd (PSMA; 5 nM tracer, 1:2 model, second interaction, read-out: K D2): 3.6 nM | kon (PSMA; 5 nM tracer, 1:2 model, second interaction, read-out: k a2 (association rate)): 49000 M⁻¹ s⁻¹ | koff (PSMA; 5 nM tracer, 1:2 model, second interaction, read-out: k d2 (dissociation rate)): 0.00016 s⁻¹ | affinity compromised in comparison with [99mTc]Tc-BQ0413 (PSMA; PC3-pip cells): 3–5 fold | Kd (PSMA; as rounded in comparison table, read-out: K D1): 0.5 nM | Kd (PSMA; as rounded in comparison table, read-out: K D2): 3.6 nM | intact tracer in PBS ([3]; PBS control, 37 °C, n = 3): 97.4 ± 0.9% | intact tracer in murine serum ([3]; mouse, 5 µg/mL): 98.7 ± 0.6%
